Ten compounds from US11224222B2, “Synergistic compositions of dehydroacetic acid and methods for reducing yellowing in various end-user compositions” (ISP Investments LLC, priority 2015, dated 2022) can be followed below.

The nature of data set [1]: Yellowing of DHA in aprotic and protic solvents. It is filed as physicochemical. The text has this: The various solvents selected are disclosed in Table 8.
The yellowing of DHA increased drastically when aprotic aromatic compounds were present along with DHA due to radical coupling between DHA and such solvents comprising aromatic compounds.
The decomposition of DHA was low at room temperature (RT) and at high temperature, wherein, the small amount of DHA decompose to form a radical and couple by themselves to form traces high of epsilon chromophoric products and if aromatic aprotic solvents are present along with DHA in solution they couple to form a longer chromophore with high intensity yellow color in water.

The nature of data set [2]: Solubility of DHA in aprotic and protic solvents. The source says:
In order to choose the suitable solvent for preparing non-yellowing DHA composition, the different possible protic, aprotic solvents were selected and evaluated individually and also as their suitable mixture.
In case of aprotic solvents, it was selected based on its compatibility with other ingredients present in the end-user products. Further, the regulatory requirement was also considered as an important element in choosing preferred aprotic solvent for preparing non-yellowing/reduced-yellowing DHA composition of the present application. The high content of DHA can be introduced in the solvent by dispersing or dissolving the DHA in their corresponding aprotic solvents. […] The various solvents selected are disclosed in Table 8.
Further, the applicants have evaluated various protic solvents to understand their ability to render non-yellowing/reduced-yellowing DHA composition for employing in various end-user products that are aqueous in nature.

Another data set has as its system S. aureus (ATCC 6538). Briefly: Synergism study (MIC, synergy index) of DHA with aprotic solvents: S. aureus. Type of data set: cell-based. The protocol: (§1) Tryptic Soy Broth (TSB) media was used for bacterial evaluations and Yeast Malt Broth (YMB) for fungal evaluations. The compounds DHA or the aprotic solvents were added to the media and serially diluted. After serially diluting the media, 100 μl of a suspension of the testing bacteria or fungi were added to a final concentration of approximately 106 −5 CFU/ml. The inoculated media was then incubated at 32° C. for 2-5 days for bacteria or at 28° C. for 3-7 days for fungi.
(§2) The lowest concentration of each compound or mixtures to inhibit visible growth was taken as the minimum inhibitory concentration (MIC). The MIC's were taken as end points of activity. End points for the mixtures of compound A (DHA) and compound B (aprotic solvent) were then compare with the end points for the pure active ingredient alone.
(§3) Synergism was determined by a commonly used and accepted method described by Kull A. C.; Eisman, P. C.; Sylwestrowicz, H. D. and Mayer, R. L. 1961. […]

The test system of data set [3] is A. brasilensts (ATCC 16404). Briefly: Synergism study (MIC, synergy index) of DHA with aprotic solvents: A. brasilensts. It is filed as cell-based. The procedure: as §1, §2, §3
A further data set concerns E. coli (ATCC 8739). Kind of data set: Synergism study (MIC, synergy index) of DHA with aprotic solvents: E. coli. Type of data set: cell-based. The procedure: as §1, §2, §3
The test system of the next data set is Mold Mixture. Briefly: Preservative Efficacy Test in Lamellar Prolipid formulation: Mold Mixture. Type of data set: cell-based. The text has this:
(§4) The detailed composition of these end-user products comprising DHA solubilized Propyelene Carbonate is described below in detail.

A further data set deals with Bacterial Mixture. Briefly: Preservative Efficacy Test in Lamellar Prolipid formulation: Bacterial Mixture. Type of data set: cell-based.
Text: as §4

In the next data set the test system is S. aureus. Briefly: Preservative Efficacy Test in Lamellar Prolipid formulation: S. aureus. It is filed as cell-based.
Text: as §4

The mark [4] stands for this setting: DHA in the named aprotic solvent, RT, 1 month.
[5] abbreviates: DHA in the named protic polar solvent, RT.
[6] abbreviates: DHA in the named protic polar solvent (Table 9).

Where two headings read alike, the source gives them in different places.

Consider `COC(=O)C(C)O` (stereo not shown) [Methyl lactate], for which the “Yellowing at RT For 1 month” value in data set [1] (setting [4]) is listed as “No yellow”.

Turning to Phenethylpropanol, the “% of DHA soluble” value in data set [2] was found to be 8%. In data set [2] (pH 8), the Comments result is recorded as “Crystallize”. Further, the “Yellowing at RT For 1 month” value in data set [1] (setting [5]) is given as “yellow on day one”.

As to Water, the “Yellowing at RT For 1 month” value in data set [1] (DHA in Water, pH 4) is recorded as “No yellowing”; in data set [1] (DHA in Water, pH 8), “Slight yellowing”.

For `CCCCCCC(O)CO` (stereo not shown) [Capryl glycol], the “% of DHA soluble” value in data set [2] (setting [6]) turned out to be 2.5%. Besides, in data set [1] (setting [5]), the “Yellowing at RT For 1 month” value was “Yellow in 30 days”.

Consider `CO[C@H]1CO[C@H]2[C@@H]1OC[C@H]2OC` [Dimethyl isosorbide], for which the “Solvent (B): MIC of solvent acting alone (QB)” value with S. aureus (ATCC 6538) is 12500 ppm; in data set [3], 3125 ppm; with E. coli (ATCC 8739) it was 12500 ppm. Further, in data set [2] (DHA in the named aprotic solvent (Table 8)), the “% of DHA soluble” value is 8-10%.

`CCCCCCC(O)CO` (stereo not shown) [0.5% octanediol]: the “Preservative Efficacy Test count, Mold Mixture, Days 2” value in the data set with Mold Mixture (day 2) is listed as 2.10E+04. In the data set with Mold Mixture (day 7), the “Preservative Efficacy Test count, Mold Mixture, Days 7” value turned out to be 1.80E+04. Also, the “Preservative Efficacy Test count, Mold Mixture, Days 14” value in the data set on Mold Mixture (day 14) turned out to be 4.40E+03. Moreover, in the data set on Mold Mixture (day 21), the “Preservative Efficacy Test count, Mold Mixture, Days 21” value is given as 4.30E+03. Further, in the data set with Mold Mixture (day 28), the “Preservative Efficacy Test count, Mold Mixture, Days 28” value was determined as 5.00E+04. The “Preservative Efficacy Test count, Bacterial Mixture, Days 2” value in the data set on Bacterial Mixture (day 2) is below 10. Also, in the data set on Bacterial Mixture (day 7), the “Preservative Efficacy Test count, Bacterial Mixture, Days 7” value is reported as below 10. The “Preservative Efficacy Test count, Bacterial Mixture, Days 14” value with Bacterial Mixture (day 14) is below 10. The “Preservative Efficacy Test count, Bacterial Mixture, Days 21” value in the data set with Bacterial Mixture (day 21) is on record as below 10. Besides, in the data set on Bacterial Mixture (day 28), the “Preservative Efficacy Test count, Bacterial Mixture, Days 28” value is below 10. Further, the “Preservative Efficacy Test count, S. aureus, Days 2” value in the data set with S. aureus (day 2) is 4.00E+01. The “Preservative Efficacy Test count, S. aureus, Days 7” value with S. aureus (day 7) is below 10. In addition, the “Preservative Efficacy Test count, S. aureus, Days 14” value in the data set on S. aureus (day 14) is below 10. For the same compound, in the data set with S. aureus (day 21), the “Preservative Efficacy Test count, S. aureus, Days 21” value is below 10. In addition, in the data set on S. aureus (day 28), the “Preservative Efficacy Test count, S. aureus, Days 28” value is recorded as below 10.

With Phenethyl ethanol, the “% of DHA soluble” value in data set [2] (setting [6]) amounted to 8%. Moreover, the “Yellowing at RT For 1 month” value in data set [1] is on record as “Yellow on day one”.

`CCCCC(O)CO` (stereo not shown) [1,2hexanediol]: the “Yellowing at RT For 1 month” value in data set [1] (setting [5]) is “Yellow in 9 days”.

A word on the MIC: it is the lowest concentration found to suppress growth. For the compound `CC1COC(=O)O1` (stereo not shown) [Propylene carbonate, propylene carbonate], the minimum inhibitory concentration (MIC) in the data set with S. aureus (ATCC 6538) (Staphylococcus aureus, ATCC6538, read-out: Solvent (B): MIC of solvent acting alone (QB)) was 12500 µg/mL; in data set [3] (read-out: Solvent (B): MIC of solvent acting alone (QB)), 6250 µg/mL; with E. coli (ATCC 8739) (Escherichia coli, ATCC8739, read-out: Solvent (B): MIC of solvent acting alone (QB)) it was 6250 µg/mL. The “Yellowing at RT For 1 month” value in data set [1] (setting [4]) is listed as “No yellowing”.

For `C1CCCCC1` [Cyclohexane], the “% of DHA soluble” value in data set [2] was 3-5%. Moreover, the “Yellowing At 50° C.” value in data set [1] (DHA in the named aprotic solvent, 50° C., figures in brackets = Gardner color) is listed as “Slight yellowing (2-3)”. Moreover, in data set [1] (setting [4]), the “Yellowing at RT For 1 month” value is reported as “No yellowing”.
